For data set [1], the system named is Candida albicans (ATCC 24433). Put plainly: microbroth dilution assay of human pathogenic yeasts (NCCLS M27A, Alamar Blue). The format is cell-based. The note with it: 24 to 48 hours. The method, then: (§1) Microbroth dilution assays of human pathogenic yeasts were performed as described in the NCCLS M27A (NCCLS, 1997) with the addition of Alamar Blue (Trek Diagnostics Systems, Inc., Westlake, Ohio) as a colorimetric indicator of viability (Espinel-Ingroff et al., 1999, J. Clin. Microbiol. 37: 591-595). All isolates were obtained from the ATCC. The assays were performed in sterile 96 well plates. The total volume per well was 100 μl. Two wells were inoculated for a given concentration. The MIC was defined as that concentration of compound resulting in no visible growth of the test organism after 24 to 48 hours of incubation with the exception of Cryptococcus neoformans which was read at 72 hours. Flucytosine was included as a control antifungal compound.

Data set [2] concerns Candida parapsilosis (ATCC 22019). The data set is described as above. Type of data set: cell-based. The note with it: 24 to 48 hours. The method, then:
as §1

The test system of data set [3] is Cryptococcus neoformans (ATCC 32045). The description is as above. The note with it: read at 72 hours. The format is cell-based. The method, then:
as §1

Data set [4] has as its system Candida albicans (ATCC 90028). The data set is described as above. Type of data set: cell-based. The note with it: 24 to 48 hours. The method, then:
as §1

Data set [5] deals with Candida parapsilosis (ATCC 90018). The data set is described as above. The note with it: 24 to 48 hours. Type of data set: cell-based. As for the experimental part: as §1
The subject of data set [6] is Candida tropicalis (ATCC 750). The data set is described as above. Type of data set: cell-based. The note with it: 24 to 48 hours. The method, then:
as §1

Data set [7] deals with Saccharomyces cerevisiae (ATCC 9763). Described as above. Type of data set: cell-based. The note with it: 24 to 48 hours. The method, then:
as §1

Data set [8] deals with Candida krusei (ATCC 6258). The description is as above. Type of data set: cell-based. The note with it: 24 to 48 hours. As for the experimental part:
as §1

Data set [9] relates to Plasmodium falciparum strain CSC-1 (Honduras). Put plainly: antimalarial assay against Plasmodium falciparum (3H-phenylalanine uptake). The format is cell-based. The note with it: read-out: IC50 against Plasmodium falciparum.
Description: All cultures were maintained in a microaerophilic environment containing 1% oxygen/5% CO2 with the balance being nitrogen. […] Control cultures contained the same quantity of DMSO or water as that used in the experimental trials. Data were reported as IC50 values.
Parasite cultures, adjusted to 0.1-0.5% parasitemia by addition of freshly washed human erythrocytes, were pipetted into 96 well culture plates by adding 10 μl of a 50% cell suspension to each well to give a final volume of 5 μl of packed erythrocytes per well. The test compounds in RPMI 1640 were added at 95 μl per well to four wells per each concentration of test compound. Quadruplicate control wells were treated similarly with DMSO or water added without the test compounds present. The cultures were gassed and exposed to radiolabeled ^3[H]-phenylalanine (1 microcurie per well) for the final 24 hour of treatment. Cultures were monitored for bacterial contamination and for parasite viability by Giemsa staining of thin films. Ultimately, the cells were harvested onto glass-fiber filters, followed by liquid scintillation counting. The IC50 for each compound was determined by linear regression analysis using 50% of the control counts as the regression point. The experiment was repeated three times, the data averaged, and the standard deviation of the mean determined.
The next data set can be described thus: in vitro. The note with it: human, primary mammary epithelial cells (HMEC).
The test system of data set [10] is human cancer cell line BT20 (breast epithelial cancer). Put plainly: CellTiter 96 cell proliferation assay, BT20. Type of data set: cell-based. The note with it: BT-20, 50% viability, 96 hours incubation.
Description: (§2) The BT20 cells were grown in the medium recommended by ATCC and were seeded into 96 well clear flat bottom plates at 3000 cells per well in 100 μl. The primary mammary cells were cultured as recommended by the manufacturer in mammary epithelial cell growth media (MEGM®) and were seeded at 3200 cells per well in 100 μl.
(§3) Each plate also contained some wells with cells plus medium only and some wells with medium only as controls. After addition of the compounds, the plates were incubated at 37° C. for 48 hours or 96 hours for the HMEC and BT20 cell lines, respectively.
(§4) The proliferation assay was performed using the manufacturer's protocols; a 20:1 solution of MTS and PMS was mixed and 10 to 40 μl was added to each well depending on the total volume in the wells. The plates were incubated at 37° C. for one to four hours, and the OD490 was determined. The OD reading of all wells was corrected for background by subtracting the reading of wells containing medium only. The wells containing cells only were used as a control for 100% viability.

By IC50 is commonly meant the concentration needed to halve the response being measured.

Each structure is given as a SMILES string. In brackets after ≈: the same amount, converted by molar mass.

Description for in vitro: as §2, §3, §4

In the case of `Nc1[nH]c(=O)ncc1F` [Flucytosine], the MIC in [1] is recorded as 1.0 μml^−1; in data set [2], 0.5 μml^−1; in data set [3], 8 μml^−1; in [4] it was 0.5 μml^−1; in data set [5] it was 0.12 μml^−1; in data set [6] it was “<=0.06 μml^−1”. Moreover, the MIC entry in data set [7] is “<=0.06 μml^−1”; in [8] it was 16 μml^−1.
Take `CCN(CC)CCCC(C)Nc1ccnc2cc(Cl)ccc12` (centres unmarked) [chloroquine]: the concentration for half-maximal inhibition (IC50) in data set [9] turned out to be 7 ng/mL (≈ 0.0219 µM).
Compound `CC(=O)O[C@H]1C(=O)[C@@]2(C)[C@H]([C@H](OC(=O)c3ccccc3)[C@]3(O)C[C@H](OC(=O)[C@H](O)[C@@H](NC(=O)c4ccccc4)c4ccccc4)C(C)=C1C3(C)C)[C@]1(OC(C)=O)CO[C@@H]1C[C@@H]2O` [taxol] yielded an IC50 at 48 h in the data set “in vitro” of 25000 to 30000 ng/mL (≈ 29.3 to 35.1 µM). The compound also registered an IC50 in [10] of 9 ng/mL (≈ 0.0105 µM).

Source of the values: patent US7387888B2, “Coronamycins” (priority 2004, dated 2008).
